# Laboratory results taken from article PMC5843810, “18th European Symposium on Radiopharmacy and Radiopharmaceuticals” (EJNMMI Radiopharmacy and Chemistry, 2016).
# Like-named read-outs stand apart in the source and are kept apart here.
# Tests used:
# in vivo = conditions: C57BL/6, mouse, αvβ3-positive melanoma tumor, iv, total radioactivity
# Method: Materials and methods: cRGDfK was functionalized with N3CH2COOH and N3PEG7COOH at ε-amino group of lysine. […] Biodistribution study of the two radiotracers was carried out in C57BL/6 mice bearing αvβ3-positive melanoma tumors. The radioactive preparation (~3.7 MBq/animal, 100 μL) was injected intravenously through the lateral tail vein. At different time intervals after injection (30, 60, and 180 min), the animals (n = 4/time point) were sacrificed and the relevant organs excised for measurement of retained activity.
# [1] = target: prostacyclin receptor (IPR) (Homo sapiens, UniProt P43119); test: Affinity for prostacyclin receptor (IPR); assay type: binding
# Chain of prostacyclin receptor (IPR) (P43119 whole entry, species assumed): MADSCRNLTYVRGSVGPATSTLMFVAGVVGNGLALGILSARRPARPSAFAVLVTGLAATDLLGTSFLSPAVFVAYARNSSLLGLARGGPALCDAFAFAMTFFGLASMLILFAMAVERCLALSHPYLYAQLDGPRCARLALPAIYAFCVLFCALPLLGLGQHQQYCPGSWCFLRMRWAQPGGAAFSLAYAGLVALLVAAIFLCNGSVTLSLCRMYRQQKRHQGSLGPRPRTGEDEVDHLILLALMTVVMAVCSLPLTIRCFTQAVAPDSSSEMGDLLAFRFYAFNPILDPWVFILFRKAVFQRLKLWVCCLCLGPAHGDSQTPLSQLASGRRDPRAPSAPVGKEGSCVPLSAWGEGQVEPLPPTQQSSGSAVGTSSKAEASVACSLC
# Source text: This concept was applied to the development of a prostacyclin receptor (IPR) tracer.
# [2] = CHI(IAM) non-specific binding measurement; assay type: physicochemical; conditions: experimental non-specific binding measurement
# Source text: Materials and methods: Similarly to the Ligand Efficiency (LE) index, we explored the usefulness of the Ligand Specific Efficiency index (LSE), which we defined as the ratio between affinity (expressed as e.g. pIC50 or pKd), and the logarithmic value of the experimental non-specific binding measurement, CHI(IAM).^[Jiang] LSE provides a measure of affinity, normalized to non-specific binding.
# CSF-1R = target: T1, CSF-1R (Rattus norvegicus, UniProt Q00495); assay type: in vivo; conditions: female rats
# T1 construct: from tissue; host or cells: living female rats (brain)
# T1 sequence (Q00495 20-978): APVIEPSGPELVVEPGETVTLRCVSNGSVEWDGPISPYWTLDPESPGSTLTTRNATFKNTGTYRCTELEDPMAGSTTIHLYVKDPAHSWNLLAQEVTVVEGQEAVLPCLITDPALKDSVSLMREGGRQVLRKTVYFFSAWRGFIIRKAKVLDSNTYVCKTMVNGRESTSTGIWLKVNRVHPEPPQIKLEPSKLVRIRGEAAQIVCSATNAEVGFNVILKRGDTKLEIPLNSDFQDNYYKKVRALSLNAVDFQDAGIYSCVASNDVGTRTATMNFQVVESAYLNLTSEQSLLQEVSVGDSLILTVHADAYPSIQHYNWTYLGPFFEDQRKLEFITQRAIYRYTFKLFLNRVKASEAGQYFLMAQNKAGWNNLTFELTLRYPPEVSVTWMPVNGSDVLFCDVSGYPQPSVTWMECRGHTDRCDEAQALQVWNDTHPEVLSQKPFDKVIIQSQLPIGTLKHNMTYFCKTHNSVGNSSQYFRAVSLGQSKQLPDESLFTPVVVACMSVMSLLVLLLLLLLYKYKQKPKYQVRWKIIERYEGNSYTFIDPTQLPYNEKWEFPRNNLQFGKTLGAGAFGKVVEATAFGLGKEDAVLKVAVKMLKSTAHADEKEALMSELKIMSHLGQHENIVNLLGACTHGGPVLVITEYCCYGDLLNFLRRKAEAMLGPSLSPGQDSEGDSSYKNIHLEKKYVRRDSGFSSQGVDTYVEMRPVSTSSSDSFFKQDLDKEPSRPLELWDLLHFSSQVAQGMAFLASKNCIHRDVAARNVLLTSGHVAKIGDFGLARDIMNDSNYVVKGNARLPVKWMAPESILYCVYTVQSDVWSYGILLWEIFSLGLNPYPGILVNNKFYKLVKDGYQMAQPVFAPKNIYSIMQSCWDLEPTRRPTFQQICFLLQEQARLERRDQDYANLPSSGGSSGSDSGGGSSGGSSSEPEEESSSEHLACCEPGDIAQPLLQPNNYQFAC
# Source text: (§1) Materials and methods: All the chemicals and reagents used in the experiments were obtained from commercial sources and used without any further purification. Synthesis of 5-cyano-N-(4-(4-methylpiperazine-1-yl)-2-(4-methylpiperidin-1-yl)phenyl)furan-2-carboxamide and 5-cyano-N-(2-(4-methylpiperidine-1-yl)-4-(piperazine-1-yl)phenyl)furan-2-carboxamide molecules were done according to literature methods available with slight modifications for radiolabeling experiments^3. The [^11C]-methyl triflate reacts with the precursor in presence of a base at room temperature for 2 minutes gives the carbon-11 radiolabeled [^11C]BA-1 which was purified by using semi-preparative reversed-phase high pressure liquid chromatography (RP-HPLC). The peak corresponding the reference compound will be collected and checked for the purity using analytical RP-HPLC. Baseline biodistribution study was performed at 2, 10, 30 and 60 min. respectively. Blocking experiment (10 mg/kg cold compound) was performed at 30 min time point in healthy female adult mice n=3 and compared with vehicle treated batch. In vitro autoradiography experiments were carried on rat brain slices by incubating tracer and cold blocking solution. MicroPET imaging studies were performed on a Focus™ 220 microPET scanner with female rats.
# [3] = assay type: in vivo; conditions: healthy mice, 2 min
# Source text: as §1
# [4] = Biodistribution and pharmacokinetics in healthy Balb/C mice; assay type: in vivo
# Method: (§2) Material and methods: [^18F]Amylovis® was synthesized by nucleophilic substitution of the tosyl group of the precursor. Thirty five healthy male Balb/C mice of 10-12 weeks were divided into […] of 5 animals each and injected with similar doses of [^18F]Amylovis® through a lateral tail vein. Blood samples were collected and the animals were sacrificed at 5, 15, 30, 45, 70 and 180 minutes. Organs of interest were removed and washed with saline. Radioactivity of blood, plasma, urine, faeces, brain, cerebellum, heart, liver, stomach, spleen, bowel, colon, left kidney, muscle, bone and tail was measured in a well counter. To assess protein binding, plasma samples were diluted with acetonitrile and centrifuged at 4000 g. Pellets of proteins and supernatants were separated and their radioactivity measured in a well counter. RadioTLC analysis of plasma were performed for the same purpose in silicagel 60 and mobile phase of acetonitrile/water (95/5). 20μL of each supernatant was analysed by HPLC-RP using a C18 column and acetonitrile/water (75/25) as mobile phase to identify plasma metabolites. Pharmacokinetic parameters (AUC, t1/2, Cmax, Cl, Vss) were calculated using non-compartmental analysis (NCA). Dynamic PET/CT images of healthy and transgenic APPSwe/PS1dE9 mice were acquired for 2.5 h after i.v. administration. […]
# [5] = Plasma protein binding (acetonitrile precipitation, radioTLC); assay type: in vitro ADME, mice; conditions: mouse plasma
# Method: as §2
# MCHR1 = MCHR1 (Rattus norvegicus, UniProt P97639); conditions: rats, n=3
# Chain of MCHR1 (P97639 whole entry): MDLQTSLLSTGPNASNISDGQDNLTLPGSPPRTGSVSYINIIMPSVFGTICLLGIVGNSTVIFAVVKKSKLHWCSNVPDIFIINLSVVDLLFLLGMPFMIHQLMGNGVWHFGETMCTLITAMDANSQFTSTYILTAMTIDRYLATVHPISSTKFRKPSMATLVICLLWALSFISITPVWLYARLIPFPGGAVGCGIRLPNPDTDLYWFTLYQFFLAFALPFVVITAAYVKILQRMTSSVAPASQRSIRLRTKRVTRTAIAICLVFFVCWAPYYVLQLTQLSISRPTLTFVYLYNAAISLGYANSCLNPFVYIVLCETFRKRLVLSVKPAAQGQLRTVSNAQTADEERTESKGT
# Method: Materials and methods: In vivo experiments were conducted in naïve male Sprague Dawley rats. For small-animal PET/CT/MR experiments, rats were anesthetized by isoflurane. 25min after [^18F]FE@SNAP iv injection (47.8±1MBq; SA: 19.7±6GBq/μmol), vehicle (baseline group, n=3) or 15mg/kg SNAP-7941 (blocking group, n=3) were administered through the tail vein. 75min after tracer injection, the rats were sacrificed. Radioactivity concentrations in brain were calculated and expressed as SUVs. In another set of experiments, [^18F]FE@SNAP (51.3±26MBq; SA: 36.1±28GBq/μmol) as well as vehicle (baseline group, n=3) or 15mg/kg SNAP-7941 (blocking group, n=3) were injected into conscious freely moving rats via a permanent catheter implanted into the jugular vein, thus excluding an influence of anaesthesia. 45min after tracer application, rats were sacrificed, the brain was removed and cut for ex vivo autoradiography. Subsequently, brain slices were put on Phosphor Imager plates for exposure and analyzed with a Cyclone Phosphor Imager the following day. Regions of interest (ROIs) were drawn for the hypothalamic region, the ventricle and a non-target region.
# [6] = tested on: B16-F10 pulmonary metastatic melanoma; conditions: NMRI mice, B16-F10 lung metastases, 1h-post injection PET, n=8
# Method: (§3) Materials and methods: [^18F]MEL050 was synthesized using a one-step bromine-for-fluorine nucleophilic heteroaromatic substitution. Briefly, [^18F]MEL050 was prepared from a bromo-precursor, using no-carrier-added 18F-KF-Kryptofix 222 (dimethylformamide, 150°C, 6 min), followed by preparative HPLC purification (C18 column (300x7.8 mm, 7 μm), isocratic elution with acetonitrile/20 mM ammonium bicarbonate (20:80, v/v), 3.0 ml/min) and cartridge-reformulation (Sep-Pak® Plus C18 environmental) of the collected fraction. Radiochemical and chemical purity, stability and specific activity measurements were monitored using analytical HPLC. Chemical identity of the labeled compound [^18F]MEL050 was assessed by co-injection with non-radioactive standard MEL050. Experimental model of pulmonary metastatic melanoma was obtained by IV injection of B16-F10 cells in NMRI mice. Mice (n=8) were imaged 15 days after inoculation, using INVEON microPET/CT device (Siemens), after IV injection of 0.36±0.04MBq/g of [^18F]MEL050. Dynamic and static acquisitions were acquired from time of injection to 2h after tracer injection. The maximum percentage of [^18F]MEL050 Injected Dose per g of lung tissue (%ID/g Max) was determined using ROIs manually drawn on 1h-post injection PET images, and correlated to ex-vivo findings.
# [7] = over 6 h, analytical HPLC
# Method: as §3
# [8] = PET/CT imaging in nude mice bearing U87MG xenograft tumor; assay type: in vivo; conditions: mouse, 90 min post injection
# Method: Materials and methods: The PET imaging properties of [^68Ga]FSC(succ-RGD)3 were studied in nude mice bearing M21 human melanoma xenografts and human glioblastoma U87MG xenograft tumor. A parallel PET imaging of ^68GaNODAGA-RGD in same mouse bearing U87MG xenograft tumor was performed as a comparison.
# PSMA = target: T2, PSMA (Homo sapiens, UniProt Q04609); test: Competitive binding assay on PSMA-positive LNCaP cells against 68Ga-PSMA-10; conditions: against 68Ga-PSMA-10, cold reference compounds
# T2 construct: endogenous in cells; host or cells: LNCaP
# T2 sequence (Q04609 whole entry): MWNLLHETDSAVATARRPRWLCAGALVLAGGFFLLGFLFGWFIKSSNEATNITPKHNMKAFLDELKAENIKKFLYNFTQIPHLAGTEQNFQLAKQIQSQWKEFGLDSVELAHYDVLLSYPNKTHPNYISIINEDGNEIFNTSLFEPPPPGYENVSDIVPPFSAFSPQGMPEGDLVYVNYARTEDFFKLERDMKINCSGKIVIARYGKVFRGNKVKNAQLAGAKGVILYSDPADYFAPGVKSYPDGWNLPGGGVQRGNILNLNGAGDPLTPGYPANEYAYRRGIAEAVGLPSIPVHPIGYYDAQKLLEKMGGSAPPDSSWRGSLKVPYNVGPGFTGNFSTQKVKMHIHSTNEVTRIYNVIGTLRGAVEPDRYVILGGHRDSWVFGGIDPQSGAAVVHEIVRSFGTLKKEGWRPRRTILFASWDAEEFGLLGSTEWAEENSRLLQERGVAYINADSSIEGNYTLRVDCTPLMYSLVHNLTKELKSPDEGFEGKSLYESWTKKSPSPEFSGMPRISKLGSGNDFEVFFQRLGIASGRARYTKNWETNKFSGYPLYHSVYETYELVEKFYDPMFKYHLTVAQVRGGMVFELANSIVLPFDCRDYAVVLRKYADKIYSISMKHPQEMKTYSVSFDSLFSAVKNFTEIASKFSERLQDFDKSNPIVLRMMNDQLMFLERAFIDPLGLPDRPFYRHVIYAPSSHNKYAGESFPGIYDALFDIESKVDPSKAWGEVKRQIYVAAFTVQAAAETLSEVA
# Method: (§4) Materials and methods: The PSMA binding motif Glu-NH-CO-NH-Lys was synthesized by a well-established method (4) using solid phase chemistry and subsequently an amino acid linker was built up by fmoc-based solid phase peptide synthesis (SPPS). The non-radioactive reference compounds were also prepared analogically and eventually conjugated by 6-fluoronicotinic acid. After separation from the resin and deprotection the peptidomimetics were labeled using the TFP-ester of 6-[^18F]fluoronicotinic acid as prosthetic group. The Ki values of all compounds were determined by competitive binding assays on PSMA-positive LNCaP cells against ^68Ga-PSMA-10 (5) using the respective cold reference compounds. Additionally, the cellular internalization of the radiofluorinated ligands was determined.
# LNCaP cells = test: Cellular internalization of radiofluorinated PSMA ligands; assay type: cell-based; conditions: in vitro
# Method: as §4
# [9] = tested on: U-87 MG and SKOV-3 tumours; conditions: 1 h after injection
# Method: The in vitro binding characteristics of FPyPEGCBT-c(RGDfK) were analysed by standard binding assay in U-87 MG and SKOV-3 cancer models and its selectivity towards integrins by siRNA depletions. Its preclinical potential was studied in mice bearing subcutaneous tumours by ex vivo biodistribution studies and in vivo microPET/CT imaging.
compound,measurement,setting,value
"N=C(N)NCCC[C@@H]1NC(=O)[C@H](CCCCNC(=O)Cn2cc(C[C@H](N)C(=O)O)nn2)NC(=O)[C@@H](Cc2ccccc2)NC(=O)[C@H](CC(=O)O)NC(=O)CNC1=O [99mTc(CO)3-Pra-Tz-CH2-cRGDfK, metal not drawn]",tissue uptake at 0.5 h,in vivo,3.01 ± 0.77 %ID/g
"N=C(N)NCCC[C@@H]1NC(=O)[C@H](CCCCNC(=O)CCOCCOCCOCCOCCOCCOCCOCCn2cc(C[C@H](N)C(=O)O)nn2)NC(=O)[C@@H](Cc2ccccc2)NC(=O)[C@H](CC(=O)O)NC(=O)CNC1=O [99mTc(CO)3-Pra-Tz-PEG7-cRGDfK, metal not drawn]",tissue uptake at 0.5 h,in vivo,4.11 ± 0.51 %ID/g
CC(C)Oc1ccc(Cc2ccc(NC3=NCCN3)cc2)cc1.Cl [Ro1138452],Ki,[1],0.23 nM
same,CHI(IAM),[2],58
"CC1CCN(c2cc(N3CCN(C)CC3)ccc2NC(=O)c2ccc(C#N)o2)CC1 [[11C]-BA1, 5-cyano-N-(4-(4-methylpiperazine-1-yl)-2-(4-methylpiperidin-1-yl)phenyl)furan-2-carboxamide]","brain SUV, baseline",CSF-1R; baseline microPET,1.2 SUV
same,"brain SUV, with blocking",CSF-1R; blocking with cold compound,2 SUV
same,lung uptake,[3],14 % ID
same,tracer uptake into the brain,[3],4 % ID
"COc1ccc2cc(CCC[18F])ccc2c1 [[18F]Amylovis®, [^18F]-2-(3-fluoropropyl)-6-methoxynaphtalene]",Plasma T1/2,"[4]; Balb/C mice, i.v., non-compartmental analysis",37 min
same,blood brain barrier crossing,[4]; mice,crossed blood brain barrier
same,protein binding,[5],No significant protein binding
COCC1=C(C(=O)OCC[18F])C(c2ccc(F)c(F)c2)N(C(=O)NCCCN2CCC(c3cccc(NC(C)=O)c3)CC2)C(=O)N1 (stereo not drawn) [[18F]FE@SNAP],"SUV in the ventricular system, blocking group",MCHR1; 15mg/kg SNAP-7941 25min after tracer,0.34±0.07 SUV
same,"SUV in the ventricular system, baseline group",MCHR1; vehicle 25min after tracer,0.73±0.11 SUV
CCN(CC)CCNC(=O)c1ccc([18F])nc1 [[18F]MEL050],%ID/g Max in lung tumours,[6],4.7±2.6%
same,product stability (RCP),[7],> 98%
"C/C1=C/C(=O)N(O)CCC[C@H](NC(=O)CCC(=O)NCCCC[C@@H]2NC(=O)[C@@H](Cc3ccccc3)NC(=O)[C@H](CC(=O)O)NC(=O)CNC(=O)[C@H](CCCNC(=N)N)NC2=O)C(=O)OCC/C(C)=C\C(=O)N(O)CCC[C@H](NC(=O)CCC(=O)NCCCC[C@@H]2NC(=O)[C@@H](Cc3ccccc3)NC(=O)[C@H](CC(=O)O)NC(=O)CNC(=O)[C@H](CCCNC(=N)N)NC2=O)C(=O)OCC/C(C)=C\C(=O)N(O)CCC[C@H](NC(=O)CCC(=O)NCCCC[C@@H]2NC(=O)[C@@H](Cc3ccccc3)NC(=O)[C@H](CC(=O)O)NC(=O)CNC(=O)[C@H](CCCNC(=N)N)NC2=O)C(=O)OCC1 [[68Ga]FSC(succ-RGD)3, metal not drawn]",tissue to tissue ratio at […],"[8]; tumour and kidneys, read-out: tumor/kidneys ratio",1.3
same,tissue to tissue ratio at […],"[8]; tumour and muscle, read-out: tumor/muscle ratio",4.9
PSMA-1007,Ki,PSMA,6 nM
same,internalization ratio,LNCaP cells,about 70%
[18F]FPyPEGCBT-c(RGDfK) (head to tail),"tumour uptake, SKOV-3",[9],2.4 %ID/g
same,"tumour uptake, U-87 MG",[9],2.9 %ID/g
